We go through 2 compounds from PMC9731497, “Identification of potent anti-Cryptosporidium new drug leads by screening traditional Chinese medicines” (PLOS Neglected Tropical Diseases, 2022).

Values joined by “and” are separate entries in the source; they are usually repeats but may differ in a detail not shown here. Identical values can stand only once. Like-named read-outs stand apart in the source and are kept apart here. Some results are limits rather than exact numbers.

The subject of data set [1] is C. parvum HNJ-1 strain. As to the kind of experiment: In vitro C. parvum growth inhibition assay (Sporo-Glo staining, fluorescence microscopy count in infected HCT-8 cells). It counts as cell-based, Cryptosporidium parvum. The note with it: for EC50: read-out: EC50 value. The protocol: The primary screening of compounds for C. parvum was performed as follows: HCT-8 cells were seeded in 96-well plates at a density of 2 × 10^4 cells/well and allowed to grow overnight. Before infecting cells, Cryptosporidium oocysts were excysted to sporozoites. 87 compounds were tested against C. parvum at a single concentration of 1 μM. Each compound was tested once. Infected HCT-8 cells and uninfected HCT-8 cells were used as positive and negative controls, respectively, in medium containing 0.1% DMSO. Nitazoxanide was used as a standard comparative drug. In vitro inhibition assays were carried out as previously described. Briefly, oocysts were suspended in 1 ml of 0.1% sodium hypochlorite in PBS, incubated for 5 min at 4°C, centrifuged for 10 min at 3000 rpm, and washed three times in PBS. The oocysts were then suspended in excystation solution consisting of 0.75% sodium taurocholate and 0.25% trypsin dissolved in 0.1 M phosphate buffer (with 93.4 mM K2HPO4 and 6.5 mM KH2PO4; pH 8.0) and incubated at 37°C for 1 h. The oocyst/sporozoite suspensions were then rinsed in 1 x PBS (with 137 mM NaCl, 2.7 mM KCl, 8 mM Na2HPO4, and 2 mM KH2PO4; pH 7.5) once more before being filtered through a 5-μm pore-size PVDF filter (Millipore, Burlington, MA, USA) with 5 ml syringe to remove the oocyst wall. HCT-8 cells were seeded in 96-well plates (Thermo Fisher Scientific Inc., MA, USA) and incubated overnight. The cells were then infected with C. parvum sporozoites (4 ×10^4 sporozoites/well) containing in RPMI-1640 medium for 3 h. After 3h inoculation, the non-infected parasite or debris were washed with new RPMI-1640 media. At this point, in RPMI-1640 medium containing 1 μM library compounds were added. Infected cells were incubated for an additional 45 h. Following incubation, the infected cells were fixed for 10 minutes in ice-cold 100% methanol at room temperature. Plates were then carefully rinsed 3 times with PBS. The parasite infected cells were then blocked with 1% bovine serum albumin (BSA) in PBS for 30 minutes and then stained with Sporo-Glo (an anti-Cryptosporidium polyclonal antibody) (Waterborne Environmental, Inc., VA, USA) protected from light for 1 h at room temperature. Finally, cells were washed twice with 1 x PBS-T (1 x PBS supplemented with 0.01% Tween). A Keyence BZ-II 9000 was used to capture the images (KEYENCE, Osaka, Japan). The plates were imaged with a HS all-in-one fluorescence microscope using a 20 x objective. The image output was imported into Microsoft excel for data organization and analyses. All C. parvum parasite in the well were counted.
For a second investigation, four selective hit compounds were used to determine the half-maximum inhibitory concentration (EC50). The parasites were treated with various doses of compounds (ranging from 0.008–1 μM). HCT-8 cells (2 × 10^4 cells/well) were grown for 24 h before being infected with 4 × 10^4 C. parvum sporozoites in 96-well plates. […] Sporo-Glo was used for C. parvum staining as described above. Fluorescence microscopy with a Keyence BZ-II 9000 imager was used to count all Cryptosporidium in the wells (KEYENCE, Osaka, Japan). EC50 vales were determined by analyzing dose-response curves made by GraphPad Prism (GraphPad Software, CA, USA).

Data set [2] deals with C. parvum HNJ-1 strain. Description: In vivo C. parvum growth inhibition assay (oocyst shedding in feces of infected SCID mice, sugar flotation). Details: species or system Cryptosporidium parvum. The note with it: 11 days; for No. of oocysts, Mean: SCID mice n=3, mean of days 3, 6, 7, 9, 12, 14; for % reduction in oocyst shedding: SCID mice n=3, vs untreated infected control.

In another data set the test system is C. parvum. Description: Histopathological analysis and immunohistochemistry of ileum of C. parvum-infected mice. Further details: key to severity of C. parvum infection in ileum, Score: -, no oocysts; 1+, mild focal infection; 2+, moderate multifocal infection; 3+, severe diffuse infection. It is filed as in vivo, Cryptosporidium parvum. The following applies: HE and immunohistochemistry, most severe area, day 14, dose not stated. The protocol: (§1) We performed a histopathological analysis to evaluate the growth inhibitory effects and toxicity of the hit compounds in C. parvum-infected mice. In brief, ileum was collected, fixed in 10% neutral buffered formalin, and paraffin-embedded. Each section was cut to a thickness of 4 μm for hematoxylin and eosin (HE) staining and immunohistochemistry. Immunohistochemistry (IHC) was performed following standard techniques using the Envision+ system (Agilent Technologies, Inc., Santa Clara, CA) and 3,3-diaminobenzidine (DAB)(Dojindo, Kumamoto, Japan). Anti-Toxoplasma gondii (RH strain) rabbit polyclonal IgG (Abcam, Cambridge, UK) was used as the primary antibody. The antibody cross reacts with C. Parvum. To reduce the endogenous peroxidase activity, the sections were incubated with 3% H2O2 for 5 minutes. Sections were incubated with primary antibodies overnight at 4°C. After washing with PBS with Tween 20 (PBST), sections were incubated with Envision+ single polymer solution (Agilent Technologies Inc.) for 30 minutes at room temperature. Sections were counterstained with Mayer’s hematoxylin. The severity of C. parvum infection was evaluated in the most severe area, and scored from—to 3+ (-, no oocysts; 1+, mild focal infection; 2+, moderate multifocal infection; 3+, severe diffuse infection). Sub-effects of drugs (hepatocellular damage) were evaluated for major histological changes in karyomegaly, hepatocellular hypertrophy, and interstitial fibrosis/inflammation. We also checked the organs (liver, heart, lung, kidney, and intestines) alteration at necropsy whether it has abnormal or normal.

For data set [3] the following is noted: initial dose-finding doses, 11 consecutive days (S1 Fig). The protocol:
The growth inhibitory effect of the hit compounds was assessed in a mouse model infected with C. parvum oocysts. In this experiment, four-week-old female SCID mice (Charles River Laboratories, Shizuoka, Japan) were used. In the infected groups, mice were orally inoculated with 1.0 × 10^5 C. parvum oocysts by using sterile gavage needles. Initially, four compounds were tested at different concentrations to figure out the optimum dosages. Six groups of mice were given oral dosages of 50, 25, and 12.5 mg/kg body weight (BW) of two compounds (alisol-A and alisol-B). […] Bufotalin was given orally at three different doses to the other mouse group: 0.1, 0.05, and 0.025 mg/kg BW. […] The positive control group consisted of infected and untreated mice, whereas the negative control group consisted of noninfected and untreated mice. Treatment began on the third day after infection and lasted until the thirteenth day. The body weight and condition were checked every day, and treatment was given based on the body weight. On days 1, 3, 6, 7, 9, 12, 14, fecal samples were taken. The total number of oocysts per gram was calculated after counting the oocysts in the feces using the sugar flotation method. The treated and untreated mice were euthanized by cervical dislocation on day 14, and a thorough necropsy was performed.

The nature of data set [4]: Liver histology (sub-effects of drugs, hepatocellular damage) in treated mice. It counts as in vivo, SCID mice. The protocol: as §1
Data set [5] can be described thus: Host cell viability assay (Cell-Titer Glo). The note with it: human.
Procedure: HCT-8 cells (4 × 10^4 cells/well) 100 μl were seeded in 96-well plates, cultured for 24 h, and then treated for 48 h with different concentrations of hit compounds (10^1, 1, 10^−1, 10^−2, 10^−3, 10^−4 μM). After a 48-h incubation period, equilibrate the 96-well plates in room temperature (RT) for 30 minutes. Then, equal volume of Cell-Titer Glo (Promega) reagent was added to each treated well, the plate was shaken on an orbital shaker for 2 minutes then incubated for 10 minutes at RT. The luminescence was quantified by the GloMax Navigator plate reader (Promega, Japan) and the cell viability was evaluated as directed by the kit manufacturer. The luminescence signal of control wells containing DMSO was set to 100% cell viability. […] Graph Pad Prism 7.0.1 was used to determine CC50 values.
The test system of another data set is HCT-8 cells. As to the kind of experiment: Host cell viability assay (Cell-Titer Glo). The note with it: HCT-8 cells, 48 h, 1 μM.
For a further data set, the system named is Cryptosporidium parvum. The note with it: cited from earlier work.
Where [6] appears, read: initial dose-finding (S1 Table), 0.1 mg/kg BW, 1 mouse.

As for `CC(=O)O[C@H]1C[C@]2(O)[C@@H]3CC[C@@H]4C[C@@H](O)CC[C@]4(C)[C@H]3CC[C@]2(C)[C@H]1c1ccc(=O)oc1` [Bufotalin], in the data set with C. parvum HNJ-1 strain [1] (Cryptosporidium parvum, HCT-8, 45 h), the concentration for a half-maximal effect (EC50) (commonly the midpoint of the concentration-response curve) turned out to be 0.0634 ± 0.0187 µM. Besides, the inhibition – broadly, the change of the read-out against control, counted positive when it falls – at 1 µM in the data set on C. parvum HNJ-1 strain [1] (Cryptosporidium parvum, HCT-8, 45 h, read-out: Parasite inhibition (%)) stood at 82.9%. The Selectivity index in the data set on C. parvum HNJ-1 strain [1] (ratio of CC50 (HCT-8) / EC50 (C. parvum)) is recorded as 172.3. Further, in the data set on C. parvum HNJ-1 strain [2] (0.025 mg/kg BW oral), the “No. of oocysts, Mean” value is 92.3 and the “% reduction in oocyst shedding” value is reported as 58.2%. In the data set with C. parvum HNJ-1 strain [2] (0.05 mg/kg BW oral), the “No. of oocysts, Mean” value is 86.6 and the “% reduction in oocyst shedding” value is given as 60.8%. Also, in the data set with C. parvum HNJ-1 strain [2] (0.1 mg/kg BW oral), the “No. of oocysts, Mean” value worked out at 48.5 and the “% reduction in oocyst shedding” value was 78.1%. Also, in the data set with C. parvum HNJ-1 strain [2] (setting [6]), the “% of oocysts shedding” value turned out to be 28.8% and the “% reduction in oocysts shedding” value was found to be 71.2%. Moreover, the “severity of C. parvum infection in ileum, Score” value in the data set with C. parvum is 1+. The “body weight of treated infected mice” value in data set [3] is “not significant”. Moreover, the “histological findings in liver” value in data set [4] (HE stain, infected treated mice (S3 Fig)) is “inflammation and hepatocellular hypertrophy”. Also, the midpoint of cytotoxicity in data set [5], the CC50 at 48 h, lay at 10.9 µM. Also, the viability (as a rule, the share of living cells, or the viability signal relative to a control) at 48 h, 1 µM in data set [5] (Host cell viability (%), HCT-8 cells, 48 h, 1 μM) is more than 95%. In addition, the “Host cell viability (%)” value with HCT-8 cells was found to be 95.1%.
Turning to `CC(=O)Oc1ccccc1C(=O)Nc1ncc([N+](=O)[O-])s1` [Nitazoxanide], the EC50 is 4.14 ± 0.54 µM in the data set with C. parvum HNJ-1 strain [1] (Cryptosporidium parvum, HCT-8, C. parvum, dose-dependent curve of comparative drug (response to reviewers)) and 1.55 to 5.1 µM in the data set on Cryptosporidium parvum (ref PMID: 22167242, PMID: 29341586, PMID: 30297368, read-out: range of EC50 value). Further, the “No. of oocysts, Mean” value in the data set with C. parvum HNJ-1 strain [2] (100 mg/kg BW oral) is 81.1. Further, the “severity of C. parvum infection in ileum, Score” value with C. parvum is recorded as 2+. In data set [4] (mouse, in vivo), the “histological findings in liver” value is “karyomegaly and hepatocellular hypertrophy”. In the data set on Cryptosporidium parvum (ref 30 (Bessoff et al., 2013), read-out: IC50 against Cryptosporidium parvum), the concentration for half-maximal inhibition (IC50) (in general, the concentration at which inhibition is half-maximal) is ~3.7 µM and 3.7 µM.
